{
  "source": "patent US4647574A",
  "about": "“Hypoglycemic hydantoin derivatives” (Nippon Zoki Pharmaceutical Co., Ltd., priority 1984, dated 1987)",
  "key": {"Blood Glucose": {"test_system": "Blood Glucose", "test": "Hypoglycemic effect (modified method by Dulin et al.)", "format": "in vivo, rat (Sprague-Dawley-strain male)", "details": "2 hours; for Blood Glucose Level: glucose-loaded fasted rats, control 134.6 ± 2.8", "description": "Groups of 10 Sprague-Dawley-strain male rats (weighing about 250 g each) which had fasted for 18 hours were used for measurement of hypoglycemic effect according to the modified method by Dulin et al. (Dulin et al, Proc. Soc. Expl. Med., 107, 245 (1961)). That is, 0.5 ml/100 g of 20% aqueous solution of glucose was subcutaneously administered into the backs of rats to prevent a decrease in blood glucose level because of the fasting. […] The obtained blood sample was allowed to stand for 30 minutes to complete the coagulation and was centrifuged to obtain the serum. Blood sugar level was measured according to the mutalotase GOD method (Trinder, Ann. Clin. Biochem., vol. 6, p. 24 ([…]))."}, "Serum Triglyceride": {"test_system": "Serum Triglyceride", "test": "Hypolipidemic effect: serum triglyceride", "format": "in vivo, rat (Wister strain male)", "details": "100 mg/kg oral, 2 hours, fasted rats; for Serum Triglyceride Decrease: vs control; for Serum Triglyceride Level: control 33.5 ± 2.9", "description": "(§1) The test drugs were orally administered to groups of 6 Wisterstrain male rats (each weighing approximately 210-250 g) which had fasted for 20 hours. 2 hours later, the serum was obtained in the same manner as described in (2). Serum triglyceride was measured by GPO-p-chlorophenol colorimetric determination (Richard et al., Clinical Chemistry, vol. 24, p. 1343 (1978)) and serum free fatty acid was measured according to the Acyl CoA Synthetase-Acyl CoA Oxidase method (Shimizu, et al., Biochem. Biophys. Res. Commun., vol. 91, p. 108 (1979))."}, "serum free fatty acid": {"test_system": "serum free fatty acid", "test": "Hypolipidemic effect: serum free fatty acid", "format": "in vivo, rat (Wister strain male)", "details": "100 mg/kg oral, 2 hours, fasted rats; for Serum Fatty Acid Decrease: vs control; for Serum Fatty Acid Level: control 0.51 ± 0.44", "description": "as §1"}, "excreted sodium": {"test_system": "excreted sodium", "test": "Diuretic effect: excreted sodium in rats (Lipschitz method)", "format": "in vivo, rat (Long-Evans strain male)", "details": "20 mg/kg oral, within 1 day", "description": "20 mg/kg of the compound 1 of the present invention were orally administered to Long-Evans strain male rats (weighing about 130-150 g each), and the total amount of excreted sodium within 1 day was then measured according to the method by Lipschitz (JPFT, Vol. 79, p. 97 (1943))."}, "sodium in urine": {"test_system": "sodium in urine", "test": "Diuretic effect: sodium in urine in mice", "format": "in vivo, mouse", "details": "subcutaneous, up until 2 hours after the administration"}, "urine sugar": {"test_system": "urine sugar", "test": "Urine sugar in glucose loaded rats", "format": "in vivo, rat", "details": "200 mg/kg oral", "description": "In addition, 200 mg/kg of the compound 1 of the present invention were orally administered to glucose loaded rats and the urine sugar was measured."}, "[1]": {"details": "Rattus norvegicus, 50 mg/kg oral, vs control, read-out: Blood Glucose Decrease"}, "[2]": {"details": "Rattus norvegicus, 200 mg/kg oral, vs control, read-out: Blood Glucose Decrease"}},
  "data": [
    {"compound": "CN1C(=O)NC(=O)C1O", "note": "(stereo not shown) [compound 1, 5-hydroxy-1-methylhydantoin]", "values": [
      {"measurement": "Blood Glucose Level", "setting": "Blood Glucose; 25 mg/kg oral", "value": "89.0 ± 4.1", "unit": "mg/dL"},
      {"measurement": "Blood Glucose Level", "setting": "Blood Glucose; 50 mg/kg oral", "value": "87.1 ± 3.3", "unit": "mg/dL"},
      {"measurement": "Blood Glucose Level", "setting": "Blood Glucose; 200 mg/kg oral", "value": "81.8 ± 4.0", "unit": "mg/dL"},
      {"measurement": "inhibition in vivo at 25 mg/kg", "setting": "Blood Glucose; Rattus norvegicus, 25 mg/kg oral, vs control, read-out: Blood Glucose Decrease", "value": 33.9, "unit": "%"},
      {"measurement": "inhibition in vivo at 50 mg/kg", "setting": "Blood Glucose; [1]", "value": 35.3, "unit": "%"},
      {"measurement": "inhibition in vivo at 200 mg/kg", "setting": "Blood Glucose; [2]", "value": 39.2, "unit": "%"},
      {"measurement": "Serum Triglyceride Decrease", "setting": "Serum Triglyceride", "value": 68, "unit": "%"},
      {"measurement": "Serum Triglyceride Level", "setting": "Serum Triglyceride", "value": "10.7 ± 1.3", "unit": "mg/dL"},
      {"measurement": "Serum Fatty Acid Decrease", "setting": "serum free fatty acid", "value": 66, "unit": "%"},
      {"measurement": "Serum Fatty Acid Level", "setting": "serum free fatty acid", "value": "0.17 ± 0.01", "unit": "mEq/dl"},
      {"measurement": "total amount of excreted sodium, ratio to control group", "setting": "excreted sodium", "value": 1.8, "unit": "times"},
      {"measurement": "increase in the amount of sodium in urine as compared with the control group", "setting": "sodium in urine", "value": 50.5, "unit": "%"},
      {"measurement": "urine sugar, difference between medicated and control groups", "setting": "urine sugar", "value": "No difference was found between the medicated and control groups"}
    ]},
    {"compound": "CCN1C(=O)NC(=O)C1O", "note": "(stereo not shown) [compound 3, 5-hydroxy-1-ethylhydantoin]", "values": [
      {"measurement": "Blood Glucose Level", "setting": "Blood Glucose; 200 mg/kg oral", "value": "76.0 ± 3.8", "unit": "mg/dL"},
      {"measurement": "inhibition in vivo at 200 mg/kg", "setting": "Blood Glucose; [2]", "value": 43.5, "unit": "%"}
    ]},
    {"compound": "O=C1NC(=O)N(C2CCCCC2)C1O", "note": "(stereo not shown) [compound 16, 5-hydroxy-1-cyclohexylhydantoin]", "values": [
      {"measurement": "Blood Glucose Level", "setting": "Blood Glucose; 200 mg/kg oral", "value": "89.6 ± 2.7", "unit": "mg/dL"},
      {"measurement": "inhibition in vivo at 200 mg/kg", "setting": "Blood Glucose; [2]", "value": 33.4, "unit": "%"}
    ]},
    {"compound": "O=C1NC(=O)N(C2CCCC2)C1O", "note": "(stereo not shown) [compound 15, 5-hydroxy-1-cyclopentylhydantoin]", "values": [
      {"measurement": "Blood Glucose Level", "setting": "Blood Glucose; 200 mg/kg oral", "value": "85.3 ± 5.9", "unit": "mg/dL"},
      {"measurement": "inhibition in vivo at 200 mg/kg", "setting": "Blood Glucose; [2]", "value": 36.6, "unit": "%"}
    ]},
    {"compound": "CCCCN1C(=O)NC(=O)C1O", "note": "(stereo not shown) [compound 4, 5-hydroxy-1-butylhydantoin]", "values": [
      {"measurement": "Blood Glucose Level", "setting": "Blood Glucose; 200 mg/kg oral", "value": "82.6 ± 3.6", "unit": "mg/dL"},
      {"measurement": "inhibition in vivo at 200 mg/kg", "setting": "Blood Glucose; [2]", "value": 38.6, "unit": "%"},
      {"measurement": "Serum Triglyceride Decrease", "setting": "Serum Triglyceride", "value": 54, "unit": "%"},
      {"measurement": "Serum Triglyceride Level", "setting": "Serum Triglyceride", "value": "15.3 ± 2.4", "unit": "mg/dL"},
      {"measurement": "Serum Fatty Acid Decrease", "setting": "serum free fatty acid", "value": 41, "unit": "%"},
      {"measurement": "Serum Fatty Acid Level", "setting": "serum free fatty acid", "value": "0.30 ± 0.01", "unit": "mEq/dl"}
    ]},
    {"compound": "CN1C(=O)NC(O)C1=O", "note": "(stereo not shown) [compound 2, 5-hydroxy-3-methylhydantoin]", "values": [
      {"measurement": "Blood Glucose Level", "setting": "Blood Glucose; 200 mg/kg oral", "value": "115.5 ± 3.9", "unit": "mg/dL"},
      {"measurement": "inhibition in vivo at 200 mg/kg", "setting": "Blood Glucose; [2]", "value": 14.2, "unit": "%"},
      {"measurement": "Serum Triglyceride Decrease", "setting": "Serum Triglyceride", "value": 59, "unit": "%"},
      {"measurement": "Serum Triglyceride Level", "setting": "Serum Triglyceride", "value": "13.8 ± 0.9", "unit": "mg/dL"},
      {"measurement": "Serum Fatty Acid Decrease", "setting": "serum free fatty acid", "value": 45, "unit": "%"},
      {"measurement": "Serum Fatty Acid Level", "setting": "serum free fatty acid", "value": "0.28 ± 0.04", "unit": "mEq/dl"}
    ]},
    {"compound": "CCCCNC(=O)NS(=O)(=O)c1ccc(C)cc1", "note": "[Tolubutamide, reference compound]", "values": [
      {"measurement": "Blood Glucose Level", "setting": "Blood Glucose; 50 mg/kg oral", "value": "63.4 ± 4.7", "unit": "mg/dL"},
      {"measurement": "Blood Glucose Level", "setting": "Blood Glucose; 100 mg/kg oral", "value": "53.0 ± 4.5", "unit": "mg/dL"},
      {"measurement": "inhibition in vivo at 50 mg/kg", "setting": "Blood Glucose; [1]", "value": 52.9, "unit": "%"},
      {"measurement": "inhibition in vivo at 100 mg/kg", "setting": "Blood Glucose; Rattus norvegicus, 100 mg/kg oral, vs control, read-out: Blood Glucose Decrease", "value": 60.6, "unit": "%"}
    ]},
    {"compound": "COC1C(=O)NC(=O)N1C", "note": "(stereo not shown) [compound 5, 5-methoxy-1-methylhydantoin]", "values": [
      {"measurement": "Blood Glucose Level", "setting": "Blood Glucose; 200 mg/kg oral", "value": "109.4 ± 2.3", "unit": "mg/dL"},
      {"measurement": "inhibition in vivo at 200 mg/kg", "setting": "Blood Glucose; [2]", "value": 18.7, "unit": "%"}
    ]},
    {"compound": "CN1CC(=O)NC1=O", "note": "[compound 23, 1methylhydantoin]", "values": [
      {"measurement": "Blood Glucose Level", "setting": "Blood Glucose; 200 mg/kg oral", "value": "106.9 ± 3.9", "unit": "mg/dL"},
      {"measurement": "inhibition in vivo at 200 mg/kg", "setting": "Blood Glucose; [2]", "value": 20.6, "unit": "%"},
      {"measurement": "Serum Triglyceride Decrease", "setting": "Serum Triglyceride", "value": 45, "unit": "%"},
      {"measurement": "Serum Triglyceride Level", "setting": "Serum Triglyceride", "value": "18.5 ± 1.8", "unit": "mg/dL"},
      {"measurement": "Serum Fatty Acid Decrease", "setting": "serum free fatty acid", "value": 43, "unit": "%"},
      {"measurement": "Serum Fatty Acid Level", "setting": "serum free fatty acid", "value": "0.29 ± 0.01", "unit": "mEq/dl"}
    ]}
  ]
}
